System: PBMC cultures from HIV-1 infected subjects on cART
Experiment: Induced cytokines and chemokines in PBMC cultures from HIV-1 infected subjects on cART (multiplexed Luminex)
Type: cell-based, human
Details: day 2, geometric mean, 4 subjects
Method: To further characterize the immune modulatory effect of TLR8 agonists in cells from HIV-infected subjects, the production of secreted cytokines and chemokines was measured in PBMCs from 4 HIV-infected subjects on suppressive cART (anonymized participant IDs 180-183). PBMCs were purified, as described in Example 121, and immediately added to tissue culture plates pre-equilibrated at 37° C. with media containing DMSO (vehicle control) or with the TLR8 modulating compound Example 15 at concentrations ranging from 1.0 nM to 10.0 μM. On day 2 after treatment, cell-free culture supernatants were collected and frozen at −80 C for subsequent analysis. Frozen supernatants were thawed at room temperature, and the indicated cytokines and chemokines were quantified with a custom multiplexed xMAP Luminex® assay following the manufacturer's instructions (Thermo Fisher Scientific Inc., Grand Island, N.Y., custom-designed kit).
Data are expressed as geometric mean cytokine values (pg/ml) obtained from 4 subjects' PBMCs. Geometric mean fold-activation from three independent incubation samples for each condition. Fold (fold-activation) is calculated as a ratio of the concentration of cytokine detected in cell culture supernatants from agonist treated samples relative to DMSO treated samples

CCCC[C@H](CO)Nc1nc(N)nc2cccnc12 [Example 15]
GRO-α (Ex 15 1 nM): 31 pg/mL
GRO-α Fold vs DMSO (Ex 15 1 nM): 1 fold
Granzyme B (Ex 15 1 nM): 80 pg/mL
Granzyme B Fold vs DMSO (Ex 15 1 nM): <1 fold
I-TAC (Ex 15 1 nM): 82 pg/mL
I-TAC Fold vs DMSO (Ex 15 1 nM): 2 fold
IFN-α (Ex 15 1 nM): 4 pg/mL
IFN-α Fold vs DMSO (Ex 15 1 nM): 2 fold
IFN-γ (Ex 15 1 nM): 50 pg/mL
IFN-γ Fold vs DMSO (Ex 15 1 nM): 2 fold
IL-6 pg/ml (Ex 15 1 nM): 61 pg/mL
IL-8 pg/ml (Ex 15 1 nM): 624 pg/mL
IL-10 pg/ml (Ex 15 1 nM): 25 pg/mL
IL-18 pg/ml (Ex 15 1 nM): 23 pg/mL
IL-23 pg/ml (Ex 15 1 nM): 131 pg/mL
IL-1RA (Ex 15 1 nM): 11610 pg/mL
IL-1RA Fold vs DMSO (Ex 15 1 nM): 3 fold
IL-1β (Ex 15 1 nM): 5 pg/mL
IL-1β Fold vs DMSO (Ex 15 1 nM): 2 fold
IL-6 Fold vs DMSO (Ex 15 1 nM): 1 fold
IL-8 Fold vs DMSO (Ex 15 1 nM): 2 fold
IL-10 Fold vs DMSO (Ex 15 1 nM): 1 fold
IL-18 Fold vs DMSO (Ex 15 1 nM): 1 fold
IL-23 Fold vs DMSO (Ex 15 1 nM): 2 fold
IP-10 pg/ml (Ex 15 1 nM): 696 pg/mL
IP-10 Fold vs DMSO (Ex 15 1 nM): 3 fold
MCP-1 pg/ml (Ex 15 1 nM): 180 pg/mL
MCP-1 Fold vs DMSO (Ex 15 1 nM): 3 fold
MIP-1α (Ex 15 1 nM): 251 pg/mL
MIP-1α Fold vs DMSO (Ex 15 1 nM): 5 fold
MIP-1β (Ex 15 1 nM): 2189 pg/mL
MIP-1β Fold vs DMSO (Ex 15 1 nM): 2 fold
MIP-3α (Ex 15 1 nM): 23 pg/mL
MIP-3α Fold vs DMSO (Ex 15 1 nM): 1 fold
MMP-1 pg/ml (Ex 15 1 nM): 119 pg/mL
MMP-1 Fold vs DMSO (Ex 15 1 nM): 1 fold
GRO-α (Ex 15 10 nM): 29 pg/mL
GRO-α Fold vs DMSO (Ex 15 10 nM): 1 fold
Granzyme B (Ex 15 10 nM): 74 pg/mL
Granzyme B Fold vs DMSO (Ex 15 10 nM): <1 fold
I-TAC (Ex 15 10 nM): 70 pg/mL
I-TAC Fold vs DMSO (Ex 15 10 nM): 1 fold
IFN-α (Ex 15 10 nM): 4 pg/mL
IFN-α Fold vs DMSO (Ex 15 10 nM): 2 fold
IFN-γ (Ex 15 10 nM): 48 pg/mL
IFN-γ Fold vs DMSO (Ex 15 10 nM): 2 fold
IL-6 pg/ml (Ex 15 10 nM): 61 pg/mL
IL-8 pg/ml (Ex 15 10 nM): 333 pg/mL
IL-10 pg/ml (Ex 15 10 nM): 21 pg/mL
IL-18 pg/ml (Ex 15 10 nM): 26 pg/mL
IL-23 pg/ml (Ex 15 10 nM): 86 pg/mL
IL-1RA (Ex 15 10 nM): 5309 pg/mL
IL-1RA Fold vs DMSO (Ex 15 10 nM): 1 fold
IL-1β (Ex 15 10 nM): 2 pg/mL
IL-1β Fold vs DMSO (Ex 15 10 nM): 1 fold
IL-6 Fold vs DMSO (Ex 15 10 nM): 1 fold
IL-8 Fold vs DMSO (Ex 15 10 nM): 1 fold
IL-10 Fold vs DMSO (Ex 15 10 nM): 1 fold
IL-18 Fold vs DMSO (Ex 15 10 nM): 2 fold
IL-23 Fold vs DMSO (Ex 15 10 nM): 1 fold
IP-10 pg/ml (Ex 15 10 nM): 259 pg/mL
IP-10 Fold vs DMSO (Ex 15 10 nM): 1 fold
MCP-1 pg/ml (Ex 15 10 nM): 91 pg/mL
MCP-1 Fold vs DMSO (Ex 15 10 nM): 1 fold
MIP-1α (Ex 15 10 nM): 70 pg/mL
MIP-1α Fold vs DMSO (Ex 15 10 nM): 1 fold
MIP-1β (Ex 15 10 nM): 1302 pg/mL
MIP-1β Fold vs DMSO (Ex 15 10 nM): 1 fold
MIP-3α (Ex 15 10 nM): 23 pg/mL
MIP-3α Fold vs DMSO (Ex 15 10 nM): 1 fold
MMP-1 pg/ml (Ex 15 10 nM): 104 pg/mL
MMP-1 Fold vs DMSO (Ex 15 10 nM): 1 fold
TNF-α (Ex 15 10 nM): 35 pg/mL
TNF-α Fold vs DMSO (Ex 15 10 nM): 2 fold
GRO-α (Ex 15 100 nM): 469 pg/mL
GRO-α Fold vs DMSO (Ex 15 100 nM): 20 fold
Granzyme B (Ex 15 100 nM): 79 pg/mL
Granzyme B Fold vs DMSO (Ex 15 100 nM): <1 fold
I-TAC (Ex 15 100 nM): 32 pg/mL
I-TAC Fold vs DMSO (Ex 15 100 nM): 1 fold
IFN-α (Ex 15 100 nM): 3 pg/mL
IFN-α Fold vs DMSO (Ex 15 100 nM): 1 fold
IFN-γ (Ex 15 100 nM): 49 pg/mL
IFN-γ Fold vs DMSO (Ex 15 100 nM): 2 fold
IL-6 pg/ml (Ex 15 100 nM): 4424 pg/mL
IL-8 pg/ml (Ex 15 100 nM): 2561 pg/mL
IL-10 pg/ml (Ex 15 100 nM): 2459 pg/mL
IL-18 pg/ml (Ex 15 100 nM): 20 pg/mL
IL-23 pg/ml (Ex 15 100 nM): 130 pg/mL
IL-1RA (Ex 15 100 nM): 41213 pg/mL
IL-1RA Fold vs DMSO (Ex 15 100 nM): 12 fold
IL-1β (Ex 15 100 nM): 135 pg/mL
IL-1β Fold vs DMSO (Ex 15 100 nM): 45 fold
IL-6 Fold vs DMSO (Ex 15 100 nM): 57 fold
IL-8 Fold vs DMSO (Ex 15 100 nM): 8 fold
IL-10 Fold vs DMSO (Ex 15 100 nM): 145 fold
IL-12p70 pg/ml (Ex 15 100 nM): 6 pg/mL
IL-12p70 Fold vs DMSO (Ex 15 100 nM): 2 fold
IL-18 Fold vs DMSO (Ex 15 100 nM): 1 fold
IL-23 Fold vs DMSO (Ex 15 100 nM): 2 fold
IP-10 pg/ml (Ex 15 100 nM): 226 pg/mL
IP-10 Fold vs DMSO (Ex 15 100 nM): 1 fold
MCP-1 pg/ml (Ex 15 100 nM): 2162 pg/mL
MCP-1 Fold vs DMSO (Ex 15 100 nM): 33 fold
MIP-1α (Ex 15 100 nM): 172 pg/mL
MIP-1α Fold vs DMSO (Ex 15 100 nM): 3 fold
MIP-1β (Ex 15 100 nM): 1302 pg/mL
MIP-1β Fold vs DMSO (Ex 15 100 nM): 1 fold
MIP-3α (Ex 15 100 nM): 28 pg/mL
MIP-3α Fold vs DMSO (Ex 15 100 nM): 1 fold
MMP-1 pg/ml (Ex 15 100 nM): 198 pg/mL
MMP-1 Fold vs DMSO (Ex 15 100 nM): 2 fold
TNF-α (Ex 15 100 nM): 132 pg/mL
TNF-α Fold vs DMSO (Ex 15 100 nM): 6 fold
GRO-α (Ex 15 1000 nM): 413 pg/mL
GRO-α Fold vs DMSO (Ex 15 1000 nM): 18 fold
Granzyme B (Ex 15 1000 nM): 878 pg/mL
Granzyme B Fold vs DMSO (Ex 15 1000 nM): 4 fold
I-TAC (Ex 15 1000 nM): 105 pg/mL

From patent publication US20170071944A1, “MODULATORS OF TOLL-LIKE RECEPTORS FOR THE TREATMENT OF HIV” (Gilead Sciences, Inc., priority 2015, published 2017)
